We go through one compound from patent US20100216755A1, “ANTI-TUMOR AGENT” (AJINOMOTO CO. INC, priority 2001, published 2010).

For series [1], the system named is Malignant fibrous histiocytoma MT-9. The series is described as follows: Anti-tumor effect, MT-9/F344 system (tumor volume, I.R.). As to conditions: for I.R.(%): 3 times every 3 days. In kind it is in vivo, rat (F344). On the procedure: • Rat tumor cell line (transplant rat strain); • Malignant fibrous histiocytoma MT-9 (F344, male)
MT-9 was obtained as in-vitro cultured cells, which were cultured in RPMI1640 medium containing 10% FBS. 10^7 or more of the MT-9 cells were subcutaneously transplanted into the back of rats. After tumor formation, tumor slices (about 100 mg) were inoculated subcutaneously into rats using cannula for serial passage.
The MT-9/F344 system: Tumors serially passed by the subcutaneous transplantation were extirpated. After binding tissues and necrosis portions in the tumors had been removed, tumor tissues were minced with scissors and made pasty. About 50-100 mg of the tumor tissues were subcutaneously transplanted into the backs of F344 rats (day 0).
After the tumors were multiplied to a measurable quantity (about 1-2 weeks later), the tumor size (tumor volume) and body weight were measured and divided into tumor size-and body weight-matched groups.
The tumor sizes (tumor volumes) and body weights were measured every day from the next day to about the third day following completion of administration. Incidentally, the tumor volume was calculated according to the following formula:
Tumor volume (mm^3)=[…].
T/C(%)=[(tumor volume for the medicine administered group)÷(tumor volume for the control group)]×100
The influence of Dexamethasone on the pharmaceutical effect of AC-7700 was investigated using F344 rats, subcutaneously transplanted MT-9. AC-7700 was administered at a dosage of 10 mg/kg, and 1 mg/kg of Dexamethasone was administered on the day before the AC-7700 administration. Both the medical agents were 3 times administered every 3 days.

A short description of series [2]: Maximum tolerable dose in CDF1 mice. The format is in vivo. The conditions noted are these: AC-7700 s.c. 3 times every 3 days, CDF1 mice (female).

Where a name gives a salt, the structure may show the parent alone. Marks after values point to notes of the source that are not given here.

Take `COc1ccc(/C=C\c2cc(OC)c(OC)c(OC)c2)cc1NC(=O)[C@@H](N)CO` [AC-7700, (Z)—N-[2-methoxy-5-[2-(3,4,5-trimethoxyphenyl)vinyl]phenyl]-L-serinamide hydrochloride]: the tumor growth entry is “significantly inhibited tumor growth” in series [1] (AC-7700 10 mg/kg as single agent, F344 rats, s.c. MT-9) and “inhibited tumor growth in the same manner” in series [1] (AC-7700 10 mg/kg in combination with Dexamethasone 1 mg/kg, no significant difference from AC-7700 alone (Scheffe's F test)). Also, the “I.R.(%)” value is listed as 84** % in series [1] (AC-7700 10 mg/kg/day alone (DEX 0), F344 rats, s.c. MT-9) and 72** % in series [1] (AC-7700 10 mg/kg/day combined with DEX 1 mg/kg/day given the day before, F344 rats, s.c. MT-9). The “maximum tolerable dose of AC-7700” value in series [2] (with Dexamethasone 5 mg/kg/day i.v. on the day before and the day of AC-7700) is on record as “more than 90 mg/kg/day”; in series [2] (without Dexamethasone), 43.6 mg/kg/day.
